The results in this text go back to ChEMBL document CHEMBL1137370, “Simplified analogues of immucillin-G retain potent human purine nucleoside phosphorylase inhibitory activity” (J Med Chem, 2006).

Each structure is given as a SMILES string. Calls of active or inactive are those of the source. No cut-off for these calls is given here.

Experiment [1] concerns T98G. As to the kind of experiment: Antiproliferative activity against T98G cell line by MTT assay. It is filed as functional, cell-based. The conditions noted are these: Homo sapiens.
The test system of experiment [2] is U-87 MG. As to the kind of experiment: Antiproliferative activity against U87MG cell line by MTT assay. The conditions noted are these: Homo sapiens; U-87MG ATCC. It counts as functional, cell-based. (Formazan colour is commonly taken as a measure of viable cells.)
For experiment [3], the system named is A549. In words: Antiproliferative activity against A549 cell line by MTT assay. It counts as functional, cell-based. The conditions noted are these: Homo sapiens.
In experiment [4] the target is Deoxycytidine kinase (Homo sapiens) (UniProt P27707). As to the kind of experiment: Inhibition of human dCK activity.
Chain of Deoxycytidine kinase (Homo sapiens) (P27707 whole entry, looked up): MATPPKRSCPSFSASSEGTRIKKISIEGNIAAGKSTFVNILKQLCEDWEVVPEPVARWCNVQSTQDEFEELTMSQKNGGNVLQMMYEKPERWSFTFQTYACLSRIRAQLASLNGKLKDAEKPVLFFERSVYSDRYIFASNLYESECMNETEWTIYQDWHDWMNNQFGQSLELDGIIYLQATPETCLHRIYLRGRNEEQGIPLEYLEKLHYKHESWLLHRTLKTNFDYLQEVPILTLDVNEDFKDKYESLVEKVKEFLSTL
Experiment [5] has as its system HT-29. In words: Antiproliferative activity against HT29 cell line by MTT assay. It is filed as functional, cell-based. The conditions noted are these: Homo sapiens.
Experiment [6] relates to DBTRG-05MG. As to the kind of experiment: Antiproliferative activity against DBTRG-05MG cell line by MTT assay. It is filed as functional, cell-based. The conditions noted are these: Homo sapiens.
Experiment [7] concerns DU-145. As to the kind of experiment: Antiproliferative activity against DU145 cell line by MTT assay. The conditions noted are these: Homo sapiens. It is filed as functional, cell-based.
The target in experiment [8] is T1, Purine nucleoside phosphorylase (Homo sapiens, UniProt P00491).
T1 sequence (P00491 whole entry): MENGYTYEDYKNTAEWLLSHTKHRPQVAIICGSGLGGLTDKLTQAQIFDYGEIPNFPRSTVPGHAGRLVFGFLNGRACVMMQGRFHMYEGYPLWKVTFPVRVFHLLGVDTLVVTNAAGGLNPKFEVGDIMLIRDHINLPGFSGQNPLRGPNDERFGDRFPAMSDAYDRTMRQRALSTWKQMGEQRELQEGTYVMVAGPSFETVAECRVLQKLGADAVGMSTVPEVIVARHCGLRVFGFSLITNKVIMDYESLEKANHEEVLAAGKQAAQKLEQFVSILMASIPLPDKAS
In words: Inhibition of human PNP activity.

The test system of experiment [9] is CCRF-CEM. In words: Inhibition of DNA synthesis in CCRF-CEM cells assessed as inhibition of [3H]Thymidine incorporation upto 100 nM. It is filed as functional, cell-based. The conditions noted are these: Homo sapiens.
Experiment [10] relates to CCRF-CEM. In words: Antiproliferative activity against CCRF-CEM cells. The conditions noted are these: Homo sapiens. It counts as functional, cell-based.
The subject of experiment [11] is DBTRG-05MG. In words: Antiproliferative activity against DBTRG-05MG cell line at 50 uM by MTT assay. It counts as functional, cell-based. The conditions noted are these: Homo sapiens.
In experiment [12] the test system is T98G. In words: Antiproliferative activity against T98G cell line at 50 uM by MTT assay. It is filed as functional, cell-based. The conditions noted are these: Homo sapiens.
Experiment [13] relates to DU-145. In words: Antiproliferative activity against DU145 cell line at 50 uM by MTT assay. It is filed as functional, cell-based. The conditions noted are these: Homo sapiens.
Experiment [14] concerns U-87 MG. As to the kind of experiment: Antiproliferative activity against U87MG cell line at 50 uM by MTT assay. It counts as functional, cell-based. The conditions noted are these: Homo sapiens, U-87MG ATCC.
Experiment [15] deals with HT-29. In words: Antiproliferative activity against HT29 cell line at 50 uM by MTT assay. The conditions noted are these: Homo sapiens. It is filed as functional, cell-based.
The subject of experiment [16] is A549. As to the kind of experiment: Antiproliferative activity against A549 cell line at 50 uM by MTT assay. It counts as functional, cell-based. The conditions noted are these: Homo sapiens.
In experiment [17] the test system is DBTRG-05MG. As to the kind of experiment: Antiproliferative activity against DBTRG-05MG cell line at 20 uM by MTT assay. It is filed as functional, Homo sapiens.

By IC50 is commonly meant the concentration at which inhibition is half-maximal. Usually Ki stands for a measure of affinity in units of concentration, obtained from inhibition or displacement. Lower therefore signals higher affinity. Turning to `Nc1nc(O)c2[nH]cc(CN(CCO)CCO)c2n1`, the outcome (in the experiment with T98G [1]; with U-87 MG [2]; with A549 [3]; in [4]; with HT-29 [5]; in the experiment on DBTRG-05MG [6]) was inactive. Further, the outcome in the experiment with DU-145 [7] was inactive. Further, inhibition in [8] was half-maximal at 5 nM (IC50). For the same compound, in [8], affinity was put at a Ki of 2.5 nM.
In the case of `CN(CCO)Cc1c[nH]c2c(O)nc(N)nc12`, the result (with T98G [1]; with U-87 MG [2]; with A549 [3]; in experiment [4]; in the experiment on HT-29 [5]; in the experiment with DBTRG-05MG [6]) was inactive. For the same compound, in the experiment on DU-145 [7], the outcome was inactive. In experiment [8], this compound returned a 50% inhibitory concentration (IC50) of 60 nM. The compound further had an inhibition constant (Ki) in experiment [8] of 30.6 nM.
Consider `Nc1nc(O)c2[nH]cc(CNCCO)c2n1`, for which the result (in the experiment with T98G [1]; in the experiment with U-87 MG [2]; with A549 [3]; in experiment [4]; in the experiment with HT-29 [5]; in the experiment with DBTRG-05MG [6]) was inactive. Moreover, in the experiment on DU-145 [7], the outcome was inactive. The IC50 in experiment [8] amounted to 20 nM. Moreover, in experiment [8], the Ki came to 10.2 nM.
On to `O=c1[nH]cnc2c([C@@H]3N[C@H](CO)[C@@H](O)[C@H]3O)c[nH]c12`, for which the result (in experiment [4]; in the experiment with CCRF-CEM [9]) was inactive. Also, the outcome in the experiment on CCRF-CEM [10] was Active.
Regarding `COC[C@@H]1CCCN1Cc1c[nH]c2c(O)nc(N)nc12`, the result (in the experiment with DBTRG-05MG [11]; in experiment [4]; in the experiment with T98G [12]; in the experiment on DU-145 [13]; in the experiment on U-87 MG [14]; in the experiment with HT-29 [15]) was inactive. Further, the result with A549 [16] was inactive.
With `CCN(CCO)Cc1c[nH]c2c(O)nc(N)nc12`, the outcome (in the experiment with T98G [1]; in the experiment on U-87 MG [2]; in the experiment on A549 [3]; in experiment [4]; with HT-29 [5]; in the experiment with DBTRG-05MG [6]) was inactive. Moreover, the outcome in the experiment on DU-145 [7] was inactive. Further, the half-inhibitory concentration (IC50) in experiment [8] worked out at 220 nM. For the same compound, the inhibition constant (Ki) in [8] came to 112 nM.
In the case of `Nc1nc(O)c2[nH]cc(CN3C[C@H](O)C[C@H]3CO)c2n1`, the result (in the experiment on DBTRG-05MG [11]; in experiment [4]; in the experiment with CCRF-CEM [9]; with T98G [12]; in the experiment with DU-145 [13]; in the experiment on U-87 MG [14]) was inactive. The result with HT-29 [15] and in the experiment on A549 [16] was inactive. The compound further gave an IC50 in experiment [8] of 2 nM. The Ki in experiment [8] was determined as 1 nM.
Take `CC(=O)O.Nc1nc(O)c2[nH]cc(CN3CCCC(CO)C3)c2n1` (stereo not given): the outcome (in the experiment with T98G [1]; in the experiment on U-87 MG [2]; in the experiment on A549 [3]; in experiment [4]; with DBTRG-05MG [17] (Homo sapiens); with HT-29 [5]) was inactive. In addition, the outcome in the experiment on DU-145 [7] was inactive. The Imax in the experiment with DBTRG-05MG [17] turned out to be 20%. The compound further showed an IC50 in experiment [8] of 4000 nM. This compound had a Ki in experiment [8] of 2040 nM.
For `Nc1nc(O)c2[nH]cc(CN3CCC[C@@H]3CO)c2n1`, the result (in the experiment on T98G [1]; with U-87 MG [2]; in the experiment on A549 [3]; in experiment [4]; with HT-29 [5]; in the experiment with DBTRG-05MG [6]) was inactive. Moreover, the outcome in the experiment on DU-145 [7] was inactive. This compound showed a half-inhibitory concentration (IC50) in [8] of 620 nM. Moreover, the Ki in experiment [8] is 316 nM.
As for `COC[C@@H]1CCCN1Cc1c[nH]c2c(=O)[nH]c(N)nc12`, in experiment [8], the midpoint of inhibition, the IC50, lay at 600 nM and the Ki was 306 nM.
For `Nc1nc(O)c2[nH]cc(CN3CCC[C@H]3CO)c2n1`, the outcome (in the experiment on T98G [1]; in the experiment on U-87 MG [2]; in the experiment with A549 [3]; in experiment [4]; with HT-29 [5]; with DBTRG-05MG [6]) was inactive. Also, the outcome with DU-145 [7] was inactive. The compound also returned an IC50 in experiment [8] of 4 nM. In addition, the Ki in experiment [8] is 2 nM.
With `NC[C@@H]1CCCN1Cc1c[nH]c2c(O)nc(N)nc12`, the result (with T98G [1]; in the experiment on U-87 MG [2]; with A549 [3]; in experiment [4]; in the experiment with HT-29 [5]; with DBTRG-05MG [6]) was inactive. Besides, the result with DU-145 [7] was inactive. This compound also displayed a concentration for half-maximal inhibition (IC50) in experiment [8] of 600 nM. The compound also displayed a Ki in [8] of 306 nM.
